# Source: patent EP1614683B1, “Indazole compounds and pharmaceutical compositions for inhibiting protein kinases, and methods for their use” (priority 1999, dated 2001)
# Where two headings read alike, the source gives them in different places.
# Experiments:
# LCK tyrosine kinase = LCK tyrosine kinase (Homo sapiens, UniProt P06239, C224D/P223M); experiment: LCK spectrophotometric assay; assay type: biochemical
# Description: The spectrophotometric assay was carried out as described above for VEGF-R2, except for the following changes in concentration: LCK = 60 nM, MgCl2 = 0 mM, poly(E4Y1) = 20 mM.
# human FGF-R1 = human FGF-R1 (Homo sapiens, UniProt P11362, C488A/C584S/L457V); experiment: FGF-R spectrophotometric assay; assay type: biochemical
# Sequence of human FGF-R1 (P11362 456-766 L457V/C488A/C584S): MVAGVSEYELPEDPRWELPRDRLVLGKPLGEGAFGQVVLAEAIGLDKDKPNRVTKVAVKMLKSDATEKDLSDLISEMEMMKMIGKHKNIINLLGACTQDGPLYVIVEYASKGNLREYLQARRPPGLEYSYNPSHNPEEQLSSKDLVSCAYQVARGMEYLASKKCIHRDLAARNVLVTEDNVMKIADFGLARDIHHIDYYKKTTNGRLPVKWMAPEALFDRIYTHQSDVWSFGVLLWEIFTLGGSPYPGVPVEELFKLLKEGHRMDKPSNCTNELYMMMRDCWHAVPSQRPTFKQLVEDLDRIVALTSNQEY
# Description: The spectrophotometric assay was carried out as described above for VEGF-R2, except for the following changes in concentration: FGF-R = 50 nM, ATP = 2 mM, and poly(E4Y1) =15 mM.
# [1] = tested on: human umbilical vein endothelial cells (HUVEC); experiment: HUVEC proliferation assay (VEGF-stimulated, MTT); assay type: cell-based; details: for IC50: Homo sapiens, HUVEC, Table 1
# Description: This assay determines the ability of a test compound to inhibit the growth factor-stimulated proliferation of human umbilical vein endothelial cells ("HUVEC"). HUVEC cells (passage 3-4, Clonetics, Corp.) were thawed into EGM2 culture medium (Clonetics Corp) in T75 flasks. Fresh EGM2 medium was added to the flasks 24 hours later. Four or five days later, cells were exposed to another culture medium (F12K medium supplemented with 10% fetal bovine serum (FBS), 60 µg/mL endothelial cell growth supplement (ECGS), and 0.1 mg/mL heparin). Exponentially-growing HUVEC cells were used in experiments thereafter. Ten to twelve thousand HUVEC cells were plated in 96-well dishes in 100 µl of rich, culture medium (described above). The cells were allowed to attach for 24 hours in this medium. The medium was then removed by aspiration and 105 µl of starvation media (F12K+1% FBS) was added to each well. After 24 hours, 15 µl of test agent dissolved in 1% DMSO in starvation medium or this vehicle alone was added into each treatment well; the final DMSO concentration was 0.1%. One hour later, 30 µl of VEGF (30 ng/mL) in starvation media was added to all wells except those containing untreated controls; the final VEGF concentration was 6 ng/mL. Cellular proliferation was quantified 72 hours later by MTT dye reduction, at which time cells were exposed for 4 hours MTT (Promega Corp.).
# [2] = mouse, in vivo, po
# [3] = read-out: Lck-P* (% inhibition)
# [4] = Table 1, compound concentration 1 µM, read-out: Lck-P* (% inhibition)
# [5] = Table 1, compound concentration 1 µM, read-out: FGF-P* (% inhibition)
# [6] = + albumin, read-out: HUVEC + albumin IC50
# Sequence of LCK tyrosine kinase (P06239 223-509 P223M/C224D): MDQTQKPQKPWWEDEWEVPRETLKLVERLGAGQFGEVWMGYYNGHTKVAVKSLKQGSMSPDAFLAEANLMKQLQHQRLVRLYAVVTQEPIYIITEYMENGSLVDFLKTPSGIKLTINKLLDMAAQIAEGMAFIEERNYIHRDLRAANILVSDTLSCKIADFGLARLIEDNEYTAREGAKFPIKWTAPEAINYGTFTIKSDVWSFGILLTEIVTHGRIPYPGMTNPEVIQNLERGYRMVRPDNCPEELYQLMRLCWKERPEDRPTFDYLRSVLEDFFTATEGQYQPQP
smiles,measurement,setting,value
"C=CCOc1cc(-c2ccc3c(/C=C/c4ccc(OC)c(OC)c4)n[nH]c3c2)ccc1O [1(c), 3-[E-2-(3,4-Dimethoxy-phenyl)vinyl]-6-(3-allyloxy-4-hydroxyphenyl)-1H-indazole]",inhibition at 1 µM,LCK tyrosine kinase; [3],46%
"COc1cc(-c2ccc3c(-c4ccccc4)n[nH]c3c2)ccc1O [2(b), 3-phenyl-6-(3-methoxy-4-hydroxy-phenyl)-1H-indazole]",Ki,"human FGF-R1; read-out: FGF-P* (Ki, cell in µM), Table 1",228 µM
"Oc1cccc(Oc2ccc3c(/C=C/c4ccccc4)n[nH]c3c2)c1 [9(a), 3-(E-styryl)-6-[3-hydroxyphenoxy]-1H-indazole]",IC50,[1]; read-out: HUVEC IC50,870 nM
"Cc1cnc(C(=O)Nc2cccc(N(C)c3ccc4c(/C=C/c5ccccc5)n[nH]c4c3)c2)s1 [12(d), 5-Methyl-thiazole-2-carboxylic acid {3-[methyl-(3-styryl-1H-indazol-6-yl)-amino]-phenyl)-amide]",inhibition at 1 µM,LCK tyrosine kinase; [4],31%
same,inhibition at 1 µM,human FGF-R1; [5],61%
same,IC50,[1]; read-out: HUVEC IC50,8.1 nM
"CN(C)c1cccc(C(=O)Nc2cccc(N(C)c3ccc4c(/C=C/c5ccc6c(c5)OCO6)n[nH]c4c3)c2)c1 [16(c), N-(3-{[3-(2-Benzo[1,3]dioxol-5-yl-vinyl)-1H-indazol-6-yl]-methyl-amino}-phenyl)-3-dimethylamino-benzamide]",IC50,[1]; read-out: HUVEC IC50,100 to 1000 nM
"CN(c1cccc(NC(=O)c2cccc(C(F)(F)F)c2)c1)c1ccc2c(/C=C/c3ccc4c(c3)OCO4)n[nH]c2c1 [16(d), N-(3-{[3-(2-Benzo[1,3]dioxol-5-yl-vinyl)-1H-indazol-6-yl]-methyl-amino}-phenyl)-3-trifluoromethyl-benzamide]",inhibition at 1 µM,LCK tyrosine kinase; [4],33%
same,inhibition at 1 µM,human FGF-R1; [5],90%
same,IC50,[1]; read-out: HUVEC IC50,11 nM
CN(c1cccc(NC(=O)c2ccc(O)c(C(C)(C)C)c2)c1)c1ccc2c(/C=C/c3ccc4c(c3)OCO4)n[nH]c2c1 [16(f)],IC50,[1]; read-out: HUVEC IC50,> 30 nM
"O=C(Nc1cccc(C(=O)c2ccc3c(/C=C/c4ccccc4)n[nH]c3c2)c1)OCc1ccccc1 [19(c), [3-(3-Styryl-1H-indazole-6-carbonyl)-phenyl]-carbamic acid benzyl ester]",inhibition at 1 µM,LCK tyrosine kinase; [4],50%
same,inhibition at 1 µM,human FGF-R1; [5],68%
same,IC50,[1]; read-out: HUVEC IC50,17 nM
"Cc1cncc(C(=O)Nc2cccc(C(=O)c3ccc4c(/C=C/c5ccccc5)n[nH]c4c3)c2)c1 [19(e), 6-[3-(5-methylpyridin-3-ylcarboxamide)benzoyl]-3-E-styryl-1H-indazole]",IC50,[1]; read-out: HUVEC IC50,> 300 nM
"O=C(Nc1cccc(Sc2ccc3c(/C=C/c4ccccc4)n[nH]c3c2)c1)c1ccccc1 [20(b), 6-(3-(Benzoylamido)-phenylsulfanyl)-3-styryl-1H-indazole]",inhibition at 1 µM,LCK tyrosine kinase; [4],23%
same,inhibition at 1 µM,human FGF-R1; [5],28%
same,IC50,[1]; read-out: HUVEC IC50,8.2 nM
C=C(c1cccc(NC(=O)OCc2ccccc2)c1)c1ccc2c(/C=C/c3ccccc3)n[nH]c2c1 [22(c)],IC50,[1]; read-out: HUVEC IC50,38 nM
"COc1cc(O)ccc1-c1ccc2c(-c3nc4ccccc4[nH]3)n[nH]c2c1 [24(d), 3-1H-Benzoimidazol-2-yl-6-(4-hydroxy-2-methoxyphenyl)-1H-indazole]",inhibition at 1 µM,LCK tyrosine kinase; read-out: Lck* (% inhibition),51%
same,inhibition at 1 µM,human FGF-R1; read-out: FGF* (% inhibition),66%
Cc1cc(C(=O)Nc2cc(Nc3ccc4c(/C=C/c5ccccn5)n[nH]c4c3)c(F)cc2C)n(C)n1 [48 (b)],AUCleast,"[2]; 25 mg/kg, pH 2.3",2191 ng·h/mL
same,T1/2,"[2]; 25 mg/kg, pH 2.3",4 h
Cc1cc(C(=O)Nc2cc(Nc3ccc4c(/C=C/c5ccccn5)n[nH]c4c3)ccc2F)n(C)n1 [49 (a)],AUCleast,"[2]; 25 mg/kg, pH 2.3",712 ng·h/mL
Cc1cc(C(=O)Nc2cc(Nc3ccc4c(/C=C/c5ccccn5)n[nH]c4c3)ccc2C)n(C)n1 [49 (b)],AUCleast,"[2]; 25 mg/kg, pH 2.3",33750 ng·h/mL
CCn1nc(C)cc1C(=O)Nc1cccc(C(=O)c2ccc3c(/C=C/c4ccccn4)n[nH]c3c2)c1.Cl [59 (a)],AUCleast,[2]; 8 mg/kg,7707 ng·h/mL
same,T1/2,[2]; 8 mg/kg,1.5 h
same,AUCleast,[2]; 40 mg/kg,57240 ng·h/mL
same,T1/2,[2]; 40 mg/kg,2.4 h
same,AUCleast,[2]; 200 mg/kg,156153 ng·h/mL
same,T1/2,[2]; 200 mg/kg,9.4 h
Cc1cc(C(=O)Nc2cccc(C(=O)c3ccc4c(/C=C/c5ccccn5)n[nH]c4c3)c2)n(C)n1.Cl [59 (b)],AUCleast,[2]; 50 mg/kg,276467 ng·h/mL
CCn1nc(C)cc1C(=O)Nc1cc(Nc2ccc3c(/C=C/c4ccccn4)n[nH]c3c2)c(F)cc1C.Cl [59 (c)],AUCleast,[2]; 25 mg/kg,327135 ng·h/mL
Cc1cc(C(=O)Nc2cc(Nc3ccc4c(/C=C/c5ccccn5)n[nH]c4c3)ccc2F)n(C)n1.Cl [59 (d)],AUCleast,[2]; 8 mg/kg,> 24696 ng·h/mL
same,AUCleast,[2]; 40 mg/kg,> 32297 ng·h/mL
same,AUCleast,[2]; 200 mg/kg,> 123206 ng·h/mL
CCn1nc(C)cc1C(=O)Nc1cccc(Oc2ccc3c(/C=C/c4ccccn4)n[nH]c3c2)c1.Cl [59 (e)],AUCleast,[2]; 25 mg/kg,12510 ng·h/mL
same,T1/2,[2]; 25 mg/kg,21 h
"O=C(Nc1cccc(Nc2ccc3c(/C=C/c4ccccc4)n[nH]c3c2)c1)c1ccccc1 [Example 13, N-[3-(3-Styryl-1H-indazol-6-ylamino)-phenyl)-benzamide]",inhibition at 1 µM,LCK tyrosine kinase; [3],61%
same,inhibition at 1 µM,human FGF-R1; read-out: FGF-P* (% inhibition),74%
same,IC50,[1]; [6],28 nM
same,IC50,[1]; read-out: HUVEC IC50,3.9 nM
NC(=O)c1ccccc1Sc1ccc2c(/C=C/c3ccccn3)n[nH]c2c1 [H-X1],"% inhibition of the proliferation of HUVEC, 0.5 nM","[1]; Library Table II, Y = S (reference Example), nominal concentration 0.5 nM, crude library reaction mixtures, >50% considered significant",9%
same,"% inhibition of the proliferation of HUVEC, 2 nM","[1]; Library Table II, Y = S (reference Example), nominal concentration 2 nM, crude library reaction mixtures, >50% considered significant",30%
"COc1cc(O)ccc1-c1ccc2c(-c3nc4c(SCCO)cccc4[nH]3)n[nH]c2c1 [Reference Example 25(f), 3-[4-(2-hydroxyethylsulfanyl)-1H-benzoimidazol-2-yl)-6-(2-methoxy-4-hydroxyphenyl)-1H-indazole]",inhibition at 1 µM,LCK tyrosine kinase; read-out: Lck* (% inhibition),58%
same,inhibition at 1 µM,human FGF-R1; read-out: FGF* (% inhibition),56%
"CNC(=O)c1cccc2[nH]c(-c3n[nH]c4cc(-c5ccc(O)cc5OC)ccc34)nc12 [Reference Example 25(j), 3-(4-methylcarbamoyl-1H-benzoimidazol-2-yl)-6-(2-methoxy-4-hydroxy-phenyl)-1H-indazole]",inhibition at 1 µM,human FGF-R1; read-out: FGF* (% inhibition),70%
"CC(=O)N1CCC(C(=O)Nc2cccc(Oc3ccc4c(/C=C/c5ccc(Cl)cc5)n[nH]c4c3)c2)CC1 [Reference Example 30(b), 6-[3-(1-acetylpiperidin-4-ylcarboxamido)phenoxy]-3-E-[2-(4-chlorophenyl)ethenyl]-1H-indazole]",IC50,[1]; read-out: HUVEC IC50,90 nM
"O=C(Nc1cccc(Oc2ccc3c(/C=C/c4ccco4)n[nH]c3c2)c1)c1ccccc1 [Reference Example 30(c), 6-[3-benzamidophenoxy]-3-[2-(fur-2-yl)ethenyl]-1H-indazole]",inhibition at 1 µM,LCK tyrosine kinase; [4],44%
same,inhibition at 1 µM,human FGF-R1; [5],82%
same,IC50,[1]; [6],21 nM
same,IC50,[1]; read-out: HUVEC IC50,2.5 nM
"O=C(Nc1cccc(Oc2ccc3c(/C=C/c4ccccc4)n[nH]c3c2)c1)c1cccc2[nH]ccc12 [Reference Example 30(d), 6-[3-(indol-4-ylcarboxamido)phenoxy]-3-E-stryrylindazole]",IC50,[1]; [6],3.8 nM
"CCn1nc(C)cc1C(=O)Nc1cccc(Oc2ccc3c(/C=C/c4ccccc4)n[nH]c3c2)c1 [Reference Example 30(e), 6-[3-((1-Ethyl-3-methyl-1H-pyrazol-5-yl)carboxamido)phenoxy]-3-E-stryrylindazole]",inhibition at 1 µM,LCK tyrosine kinase; [4],62%
same,inhibition at 1 µM,human FGF-R1; [5],92%
same,IC50,[1]; [6],29 nM
"O=C(NNC(=O)c1ccccc1Sc1ccc2c(/C=C/c3ccccn3)n[nH]c2c1)c1cccs1 [Reference Example 35(m), 6-[2-((Thien-2-ylhydrazido)carbonyl)phenylsulfanyl]-3-E-[2-(pyridin-2-yl)ethenyl]-1H-indazole]",inhibition at 1 µM,LCK tyrosine kinase; [4],61%
same,inhibition at 1 µM,human FGF-R1; [5],82%
same,IC50,[1]; [6],35 nM
"CC(C)(C)c1ccc(C(=O)Nc2cccc(C(=O)c3ccc4c(/C=C/c5ccccn5)n[nH]c4c3)c2)cc1 [Reference Example 41(s), 6-[3-(4-t-butylbenzamido)benzoyl}-3-E-[2-(pyridin-2-yl)ethenyl]-1H-indazole]",inhibition at 1 µM,LCK tyrosine kinase; [4],53%
same,inhibition at 1 µM,human FGF-R1; [5],86%
"COc1cc(C(=O)Nc2cccc(C(=O)c3ccc4c(/C=C/c5ccccn5)n[nH]c4c3)c2)cc(Cl)n1 [Reference Example 41(u), 6-[3-((2-chloro-6-methoxypyridin-4-yl)carboxamido)benzoyl]-3-E-[2-(pyridin-2-yl)ethenyl]-1H-indazole]",inhibition at 1 µM,LCK tyrosine kinase; [4],54%
same,inhibition at 1 µM,human FGF-R1; [5],74%
same,IC50,[1]; [6],7.9 nM
